Data on 8 compounds can be found in ChEMBL document CHEMBL1201862, “PubChem BioAssay data set” (2004).

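Each compound was tested at five concentrations against cells in 96-well plates for 48 hours. The concentration for 50% growth inhibition is given as GI50.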 The source made the active and inactive calls. No stated cut-off is given here; in the data, active = GI50 up to about 1.1 µM and inactive = higher.

For orientation: GI50 means the concentration giving 50% growth inhibition.

What all share (experiment): DTP human tumour cell line panel, 48 h
Assay [1] deals with Malme-3M.
In assay [2] the test system is K562.
For assay [3], the system named is HCC 2998.
In assay [4] the test system is OVCAR-5.
The subject of assay [5] is ACHN.
Assay [6] relates to SK-MEL-5.
In assay [7] the test system is SNB-78.
Assay [8] deals with HCT-15.
Assay [9] has as its system OVCAR-8.
Assay [10] deals with SNB-19.
In assay [11] the test system is UACC-62.
Assay [12] deals with NCI-H460.
Assay [13] deals with SNB-75.
The subject of assay [14] is UACC-257.
In assay [15] the test system is KM-20L2.
For assay [16], the system named is HT-29.
Assay [17] concerns DMS-273.
For assay [18], the system named is CCRF-CEM.

On to `CN1C(=O)CC(c2cccc(C3CC(=O)N(C)C3=O)n2)C1=O` (stereo not drawn), for which the GI50 in [1], in [2], in [3], in assay [4], in [5] and in assay [6] was > 100 µM (inactive) throughout. Further, the GI50 is > 100 µM (inactive) in [7]; over 100 µM in [8]; > 100 µM (inactive) in [9]; > 100 µM (inactive) in assay [10]; > 100 µM (inactive) in assay [11]; > 100 µM (inactive) in assay [12]. The GI50 in assay [13], in assay [14], in assay [15], in assay [16], in assay [17] and in [18] was > 100 µM (inactive) throughout.
Consider `[O-][Cl+3]([O-])([O-])[O-].c1ccc(-c2csc3c4ccccc4c4ccccc4[n+]23)cc1`, for which the GI50 is 1.58 µM (inactive) in assay [1]; 0.708 µM (active) in assay [2]; 1.54 µM (inactive) in assay [3]; 14.3 µM (inactive) in assay [4]; 10.2 µM (inactive) in assay [5]; 0.971 µM (active) in [6]. Moreover, the GI50 in assay [7] is 2.08 µM (inactive); in [8], 23.3 µM; in assay [9] it was 2.59 µM (inactive); in assay [10] it was 2.15 µM (inactive); in [11] it was 1.88 µM (inactive); in assay [12], 2.51 µM (inactive). The GI50 in [13] is 2.35 µM (inactive); in assay [14], 1.08 µM (active); in [15] it was 5.53 µM (inactive); in [16] it was 4.15 µM (inactive); in [17], 1.6 µM (inactive); in assay [18], 2.25 µM (inactive).
For the compound `COC(=O)C(Cc1nc2ccc(Cl)cc2nc1O)C(=O)C(=O)Nc1cc(C)ccc1C` (stereo not drawn), the GI50 in assay [1], in [2], in assay [3], in assay [4], in assay [5] and in [6] was > 100 µM (inactive) in each case. In addition, the GI50 is > 100 µM (inactive) in assay [7]; over 100 µM in assay [8]; > 100 µM (inactive) in assay [9]; > 100 µM (inactive) in [10]; > 100 µM (inactive) in assay [11]; > 100 µM (inactive) in [12]. In addition, the GI50 in assay [13], in [14], in assay [15], in [16], in assay [17] and in [18] was > 100 µM (inactive) in each case.
In the case of `CS(=O)(=O)OCCN1CCN(C(=O)c2cccc3c(Nc4ccc(S(=O)(=O)N=C(N)N)cc4)c4ccccc4nc23)CC1`, the GI50 in [1], in [2], in [3], in assay [4], in [5] and in assay [6] was > 100 µM (inactive) throughout. Moreover, the GI50 was > 100 µM (inactive) in [7]; over 100 µM in [8]; > 100 µM (inactive) in assay [9]; > 100 µM (inactive) in assay [10]; > 100 µM (inactive) in assay [11]; > 100 µM (inactive) in assay [12]. Moreover, the GI50 in assay [13], in [14], in assay [15], in assay [16], in [17] and in assay [18] was > 100 µM (inactive) in each case.
Take `Nc1c(-c2ccc(-c3c(N)[n+]([O-])c4ccccc4[n+]3[O-])cc2)[n+]([O-])c2ccccc2[n+]1[O-]`: the GI50 in assay [1] is 3.02 µM (inactive); in [2] it was 15.7 µM (inactive); in assay [3], 15.1 µM (inactive); in [4], 20.5 µM (inactive); in assay [5], 16.2 µM (inactive); in assay [6], 10.1 µM (inactive). Besides, the GI50 in assay [7] was 8.39 µM (inactive); in assay [8], 3.92 µM; in assay [9], 18.9 µM (inactive); in assay [10], 13.7 µM (inactive); in assay [11] it was 10.2 µM (inactive); in assay [12], 14.3 µM (inactive). Further, the GI50 is 8.15 µM (inactive) in assay [13]; 3.47 µM (inactive) in assay [14]; > 10 µM (inactive) in [15]; 12.1 µM (inactive) in assay [16]; 14.2 µM (inactive) in assay [17]; 38.7 µM (inactive) in assay [18].
Turning to `CC(=O)NC(CCCCNC(=O)N(C)N=O)C(=O)NCc1ccccc1` (stereo not drawn), the GI50 in assay [1], in [2], in assay [3], in assay [4], in assay [5] and in assay [6] was > 100 µM (inactive) in each case. The GI50 was > 100 µM (inactive) in [7]; over 100 µM in [8]; > 100 µM (inactive) in assay [9]; > 100 µM (inactive) in [10]; > 100 µM (inactive) in assay [11]; 79.6 µM (inactive) in [12]. Moreover, the GI50 in assay [13] is 43.4 µM (inactive); in assay [14] it was > 100 µM (inactive); in [15], > 100 µM (inactive); in assay [16], > 100 µM (inactive); in [17], > 100 µM (inactive); in assay [18] it was > 100 µM (inactive).
`N#CCC(=O)NC1C2CC3CC(C2)CC1C3` (stereo not drawn): the GI50 in assay [1] is 20.3 µM (inactive); in assay [2], 26.5 µM (inactive); in assay [3], 18 µM (inactive); in assay [4] it was 22.1 µM (inactive); in assay [5] it was 19.1 µM (inactive); in assay [6], 14.6 µM (inactive). For the same compound, the GI50 in assay [7] is 20.5 µM (inactive); in [8], 17.2 µM; in [9] it was 17.5 µM (inactive); in assay [10], 17.3 µM (inactive); in assay [11] it was 15.1 µM (inactive); in assay [12], 16.7 µM (inactive). Moreover, the GI50 was 17.2 µM (inactive) in assay [13]; 20.9 µM (inactive) in assay [14]; 18.2 µM (inactive) in assay [15]; 18.5 µM (inactive) in [16]; 21.6 µM (inactive) in [17]; 18.7 µM (inactive) in [18].
Consider `CCCCCCCC(=O)NCC(O)CNC(=O)CCCCCCC`, for which the GI50 in assay [1], in assay [2], in assay [3], in assay [4], in [6] and in assay [7] was > 100 µM (inactive) in each case. For the same compound, the GI50 in assay [8] was over 100 µM; in assay [9] it was > 100 µM (inactive); in assay [10], > 100 µM (inactive); in assay [11] it was > 100 µM (inactive); in [12] it was > 100 µM (inactive); in assay [13], > 100 µM (inactive). The GI50 in assay [14] was > 100 µM (inactive); in [15], > 100 µM (inactive); in [16] it was > 100 µM (inactive); in assay [17] it was > 100 µM (inactive); in [18], 88.1 µM (inactive).
